From patent publication US12419862B2, “Use of a cathepsin s inhibitor against the formation of anti-drug antibodies” (Hoffmann-La Roche Inc., priority 2018, dated 2025)

What was measured:
[1] = tested on: IgG response to murine hemi-surrogate CEA-TCB; assay: ADA against murine hemi-surrogate CEA-TCB in hIgG1 Tg mice, ELISA (Example 8); assay type: in vivo, C57BL/6-Tg (hIgG1,k,l) mice; details: 40 mg/kg/day via food admix from one week before first immunization until day 28, vs vehicle
Experimental: 11-15-week-old mice C57BL/6-Tg (hIgG1,k,l) mixed gender (n=20) were purchased from Taconic (Denmark) and housed at the animal facilities in room with air-conditioned under a 12 hours light/dark cycle in macrolon boxes with enriched environment and free access to water and food. 7×10 μg of CEA-TCB (P1AE3536, huCEA binder CH1A1A/mouse CD3 binder 2C11) were injected at day 0, 4, 7, 11, 14, 18 and 21 subcutaneously in the right flank or the left flank alternatively. The dosage of (2S,4R)-4-[4-(1-methyl-1H-pyrazol-4-yl)-2-trifluoromethyl-benzenesulfonyl]-1-(1-trifluoromethyl-cyclopropanecarbonyl)-pyrrolidine-2-carboxylic acid (1-cyano-cyclopropyl)-amide consumption was 40 mg/kg/day. […]
(§1) Nunc Maxisorp flat-bottom 96 well ELISA plates were coated with 100 μl per well of huCEA IgG PGLALA (P1AD9477) or hu anti mouse CD3 (P1AE2779-001-01) respectively at 5 μg/mL in NaHCO3100 mM buffer overnight at +4° C. […] 100 μl of substrate P-nitrophenyl phosphate ready to use (Life Technologies, Cat no 002212) were added per well and after 10 min incubation at room temperature, the OD at 405 nm was read as an end-point measurement with a Versamax ELISA reader.

[2] = tested on: IgG response to murine surrogate PD-L1; assay: ADA against murine surrogate PD-L1 in wild-type mice, ELISA (Example 7); assay type: in vivo, C57BL/6 mice; details: 40 mg/kg/day via food admix from one week before first immunization until day 23
Experimental: 10-week-old female mice C57BL/6 were purchased from Charles River Laboratories (Germany) and housed at the animal facilities in room with air-conditioned under a 12 hours light/dark cycle in macrolon boxes with enriched environment and free access to water and food. 10 mg/kg of muPD-L1 (P1AE4930-001) were injected at day 1, 8 and 15 intravenously to the group 4 (n=10 mice) and at day 1, 8, 15 and 22 to the group 5 (n=10 mice) respectively. The dosage of (2S,4R)-4-[4-(1-methyl-1H-pyrazol-4-yl)-2-trifluoromethyl-benzenesulfonyl]-1-(1-trifluoromethyl-cyclopropanecarbonyl)-pyrrolidine-2-carboxylic acid (1-cyano-cyclopropyl)-amide consumption was 40 mg/kg/day. (2S,4R)-4-[4-(1-methyl-1H-pyrazol-4-yl)-2-trifluoromethyl-benzenesulfonyl]-1-(1-trifluoromethyl-cyclopropanecarbonyl)-pyrrolidine-2-carboxylic acid (1-cyano-cyclopropyl)-amide was given via food admix (Ssniff Spezialdiäten, Germany) daily from one week before the first muPD-L1 immunization until day 23 to the group 5. […]
as §1, with “of” for “of huCEA IgG PGLALA (P1AD9477) or hu”, “muPD-L1 (P1AE4930-001)” for “mouse CD3 (P1AE2779-001-01) respectively”

Cn1cc(-c2ccc(S(=O)(=O)[C@@H]3C[C@@H](C(=O)NC4(C#N)CC4)N(C(=O)C4(C(F)(F)F)CC4)C3)c(C(F)(F)F)c2)cn1 [cathepsin S inhibitor, (2S,4R)-4-[4-(1-methyl-1H-pyrazol-4-yl)-2-trifluoromethyl-benzenesulfonyl]-1-(1-trifluoromethyl-cyclopropanecarbonyl)-pyrrolidine-2-carboxylic acid (1-cyano-cyclopropyl)-amide]
ADA specific to CD3 binder (2C11) of CEA-TCB [1]: significantly reduced ADA to CD3 binder
CEA-specific ADA to CEA-TCB [1]: reduction of CEA-specific ADA was not significant
ADA to mPD-L1 [2]: significantly reduced ADA to mPD-L1
